From ChEMBL document CHEMBL3045134, “Synthesis, molecular modeling and anti-inflammatory screening of new 1,2,3-benzotriazinone derivatives” (Med Chem Res, 2012)

Assays:
Rattus norvegicus [1] = experiment: Ulcerogenicity in Rattus norvegicus albino (rat) at 0.9 mg/100 g/day, po qd for 3 successive days; type: toxicity, organism-based; settings: in vivo
Rattus norvegicus [2] = experiment: Anti-inflammatory activity inRattus norvegicus albino (rat) assessed as reduction in carrageenan-induced paw edema at 10 mg/kg, ip administered 1 hr prior to carrageenan-induced measured 1 to 4 hr post challenge relative to indomethacin; type: functional; set-up: scale not given: the % may be the effect or the level left; settings: route intraperitoneal
Rattus norvegicus [3] = experiment: Anti-inflammatory activity carrageenan-induced paw edema in Rattus norvegicus albino (rat) at 9 mg/kg, ip administered 1 hr prior to carrageenan-induced measured 1 to 4 hr post challenge relative to control; type: functional; settings: route intraperitoneal
Rattus norvegicus [4] = experiment: Anti-inflammatory activity carrageenan-induced paw edema in Rattus norvegicus albino (rat) assessed as paw thickness at 9 mg/kg, ip administered 1 hr prior to carrageenan-induced measured 4 hr post challenge; type: functional; settings: route intraperitoneal
Rattus norvegicus [5] = experiment: Anti-inflammatory activity carrageenan-induced paw edema inRattus norvegicus albino (rat) assessed as paw thickness at 9 mg/kg, ip administered 1 hr prior to carrageenan-induced measured 3 hr post challenge; type: functional; settings: route intraperitoneal
Rattus norvegicus [6] = experiment: Anti-inflammatory activity carrageenan-induced paw edema inRattus norvegicus albino (rat) assessed as paw thickness at 9 mg/kg, ip administered 1 hr prior to carrageenan-induced measured 2 hr post challenge; type: functional; settings: route intraperitoneal
Rattus norvegicus [7] = experiment: Anti-inflammatory activity carrageenan-induced paw edema inRattus norvegicus albino (rat) assessed as paw thickness at 9 mg/kg, ip administered 1 hr prior to carrageenan-induced measured 1 hr post challenge; type: functional; settings: route intraperitoneal
Rattus norvegicus [8] = experiment: Ulcerogenicity in Rattus norvegicus albino (rat) at 9 mg/kg/day, po qd for 3 successive days; type: toxicity, organism-based; set-up: route oral; settings: in vivo
Rattus norvegicus [9] = experiment: Anti-inflammatory activity carrageenan-induced paw edema in Rattus norvegicus albino (rat) at 10 mg/kg, ip administered 1 hr prior to carrageenan-induced measured 1 to 4 hr post challenge relative to control; type: functional; settings: route intraperitoneal
Rattus norvegicus [10] = experiment: Anti-inflammatory activity carrageenan-induced paw edema in Rattus norvegicus albino (rat) assessed as paw thickness at 10 mg/kg, ip administered 1 hr prior to carrageenan-induced measured 4 hr post challenge; type: functional; settings: route intraperitoneal
Rattus norvegicus [11] = experiment: Anti-inflammatory activity carrageenan-induced paw edema in Rattus norvegicus albino (rat) assessed as paw thickness at 10 mg/kg, ip administered 1 hr prior to carrageenan-induced measured 3 hr post challenge; type: functional; settings: route intraperitoneal
Rattus norvegicus [12] = experiment: Anti-inflammatory activity carrageenan-induced paw edema in Rattus norvegicus albino (rat) assessed as paw thickness at 10 mg/kg, ip administered 1 hr prior to carrageenan-induced measured 2 hr post challenge; type: functional; settings: route intraperitoneal
Rattus norvegicus [13] = experiment: Anti-inflammatory activity carrageenan-induced paw edema in Rattus norvegicus albino (rat) assessed as paw thickness at 10 mg/kg, ip administered 1 hr prior to carrageenan-induced measured 1 hr post challenge; type: functional; settings: route intraperitoneal

Q: With `Cc1ccc(NC(=O)Cn2nnc3ccccc3c2=O)cc1` as the compound, how does the UI (Rattus norvegicus [1]) read?
A: Its UI is 140.

Q: And the Activity (Rattus norvegicus [2])?
A: The Activity was 36.7746%.

Q: And the Activity (Rattus norvegicus [3])?
A: Its Activity is 63.23%.

Q: What about the Activity (Rattus norvegicus [4]) of the same compound?
A: The Activity was 4.12 mm.

Q: What about the Activity (Rattus norvegicus [5]) of the same compound?
A: Its Activity is 4 mm.

Q: What about the Activity (Rattus norvegicus [6]) of the same compound?
A: The Activity was 3.1 mm.

Q: What about the Activity (Rattus norvegicus [7]) of the same compound?
A: The Activity was 2.62 mm.

Q: Which UI (Rattus norvegicus [1]) does the source give for `Cc1ccc(C)n1NC(=O)Cn1nnc2ccccc2c1=O` here?
A: The UI was 220.

Q: What about the Activity (Rattus norvegicus [2]) of the same compound?
A: Its Activity is 34.046%.

Q: What about the Activity (Rattus norvegicus [3]) of the same compound?
A: Its Activity is 65.95%.

Q: What about the Activity (Rattus norvegicus [4]) of the same compound?
A: The Activity was 4.25 mm.

Q: What about the Activity (Rattus norvegicus [5]) of the same compound?
A: Its Activity is 4.75 mm.

Q: And the Activity (Rattus norvegicus [6])?
A: Its Activity is 4.75 mm.

Q: What about the Activity (Rattus norvegicus [7]) of the same compound?
A: The Activity was 3.75 mm.

Q: How did the UI (Rattus norvegicus [1]) turn out when `Cc1cc(C)n(C(=O)Cn2nnc3ccccc3c2=O)n1` was run?
A: The UI was 140.

Q: What about the Activity (Rattus norvegicus [2]) of the same compound?
A: The Activity was 33.313%.

Q: And the Activity (Rattus norvegicus [3])?
A: Its Activity is 66.69%.

Q: What about the Activity (Rattus norvegicus [4]) of the same compound?
A: Its Activity is 3.75 mm.

Q: What about the Activity (Rattus norvegicus [5]) of the same compound?
A: Its Activity is 3.5 mm.

Q: And the Activity (Rattus norvegicus [6])?
A: Its Activity is 2.75 mm.

Q: What about the Activity (Rattus norvegicus [7]) of the same compound?
A: Its Activity is 2.12 mm.

Q: How did the UI (Rattus norvegicus [1]) turn out when `Cc1cc(-c2ccccc2)n(C(=O)Cn2nnc3ccccc3c2=O)n1` was run?
A: Its UI is 120.

Q: What about the Activity (Rattus norvegicus [2]) of the same compound?
A: Its Activity is 54.2048%.

Q: What about the Activity (Rattus norvegicus [3]) of the same compound?
A: The Activity was 45.8%.

Q: What about the Activity (Rattus norvegicus [4]) of the same compound?
A: Its Activity is 3.75 mm.

Q: And the Activity (Rattus norvegicus [5])?
A: Its Activity is 4.5 mm.

Q: What about the Activity (Rattus norvegicus [6]) of the same compound?
A: Its Activity is 4.37 mm.

Q: What about the Activity (Rattus norvegicus [7]) of the same compound?
A: Its Activity is 3.25 mm.

Q: With `O=c1c2ccccc2nnn1Cc1nnc(Nc2ccccc2)s1` as the compound, how does the UI (Rattus norvegicus [1]) read?
A: Its UI is 340.

Q: And the Activity (Rattus norvegicus [2])?
A: Its Activity is 29.3016%.

Q: And the Activity (Rattus norvegicus [3])?
A: Its Activity is 70.7%.

Q: And the Activity (Rattus norvegicus [4])?
A: The Activity was 5.25 mm.

Q: What about the Activity (Rattus norvegicus [5]) of the same compound?
A: Its Activity is 4.62 mm.

Q: And the Activity (Rattus norvegicus [6])?
A: Its Activity is 4.2 mm.

Q: What about the Activity (Rattus norvegicus [7]) of the same compound?
A: Its Activity is 3.75 mm.

Q: With `O=c1c2ccccc2nnn1Cc1nnc(Nc2ccccc2)o1` as the compound, how does the UI (Rattus norvegicus [1]) read?
A: The UI was 340.

Q: What about the Activity (Rattus norvegicus [2]) of the same compound?
A: Its Activity is 29.3016%.

Q: And the Activity (Rattus norvegicus [3])?
A: Its Activity is 70.7%.

Q: And the Activity (Rattus norvegicus [4])?
A: Its Activity is 5.25 mm.

Q: What about the Activity (Rattus norvegicus [5]) of the same compound?
A: The Activity was 4.62 mm.

Q: And the Activity (Rattus norvegicus [6])?
A: Its Activity is 4.2 mm.

Q: And the Activity (Rattus norvegicus [7])?
A: Its Activity is 3.75 mm.

Q: With `O=C(Cn1nnc2ccccc2c1=O)N/N=c1/scc(-c2ccccc2)n1-c1ccccc1` as the compound, how does the UI (Rattus norvegicus [1]) read?
A: The UI was 300.

Q: And the Activity (Rattus norvegicus [2])?
A: The Activity was 45.9377%.

Q: And the Activity (Rattus norvegicus [3])?
A: The Activity was 54.06%.

Q: And the Activity (Rattus norvegicus [4])?
A: The Activity was 5.12 mm.

Q: And the Activity (Rattus norvegicus [5])?
A: The Activity was 5 mm.

Q: What about the Activity (Rattus norvegicus [6]) of the same compound?
A: The Activity was 4.75 mm.

Q: And the Activity (Rattus norvegicus [7])?
A: The Activity was 4 mm.

Q: `COc1cccc(NC(=O)Cn2nnc3ccccc3c2=O)c1` was tested. Which UI (Rattus norvegicus [1]) did it give?
A: Its UI is 240.

Q: And the Activity (Rattus norvegicus [2])?
A: The Activity was 38.7294%.

Q: What about the Activity (Rattus norvegicus [3]) of the same compound?
A: The Activity was 61.27%.

Q: And the Activity (Rattus norvegicus [4])?
A: Its Activity is 3.25 mm.

Q: And the Activity (Rattus norvegicus [5])?
A: Its Activity is 3.25 mm.

Q: And the Activity (Rattus norvegicus [6])?
A: The Activity was 3.12 mm.

Q: And the Activity (Rattus norvegicus [7])?
A: Its Activity is 2.75 mm.

Q: How did the UI (Rattus norvegicus [1]) turn out when `COc1ccccc1NC(=O)Cn1nnc2ccccc2c1=O` was run?
A: The UI was 210.

Q: And the Activity (Rattus norvegicus [2])?
A: The Activity was 52.1686%.

Q: And the Activity (Rattus norvegicus [3])?
A: Its Activity is 47.8314%.

Q: What about the Activity (Rattus norvegicus [4]) of the same compound?
A: The Activity was 4.25 mm.

Q: What about the Activity (Rattus norvegicus [5]) of the same compound?
A: The Activity was 4 mm.

Q: What about the Activity (Rattus norvegicus [6]) of the same compound?
A: Its Activity is 5.25 mm.

Q: And the Activity (Rattus norvegicus [7])?
A: Its Activity is 3.8 mm.

Q: Which results are given for `Cc1ccccc1NC(=O)Cn1nnc2ccccc2c1=O`?
A: UI (Rattus norvegicus [1]): 240; Activity (Rattus norvegicus [2]): 33.9238%; Activity (Rattus norvegicus [3]): 66.08%; Activity (Rattus norvegicus [4]): 4.25 mm; Activity (Rattus norvegicus [5]): 4 mm; Activity (Rattus norvegicus [6]): 4 mm; Activity (Rattus norvegicus [7]): 4.4 mm

Q: What does the source list for `CC(=O)c1ccc(NC(=O)Cn2nnc3ccccc3c2=O)cc1`?
A: UI (Rattus norvegicus [1]): 130; Activity (Rattus norvegicus [2]): 47.7499%; Activity (Rattus norvegicus [3]): 52.25%; Activity (Rattus norvegicus [4]): 4.37 mm; Activity (Rattus norvegicus [5]): 3.37 mm; Activity (Rattus norvegicus [6]): 3.87 mm; Activity (Rattus norvegicus [7]): 3.87 mm

Q: Which results are given for `O=C(Cn1nnc2ccccc2c1=O)Nc1ccccc1`?
A: UI (Rattus norvegicus [1]): 300; Activity (Rattus norvegicus [2]): 41.7838%; Activity (Rattus norvegicus [3]): 58.22%; Activity (Rattus norvegicus [4]): 3.8 mm; Activity (Rattus norvegicus [5]): 4.1 mm; Activity (Rattus norvegicus [6]): 4.25 mm; Activity (Rattus norvegicus [7]): 4.5 mm

Q: What does the source list for `Cc1ccc(-c2cc(C(F)(F)F)nn2-c2ccc(S(N)(=O)=O)cc2)cc1` [CELECOXIB]?
A: UI (Rattus norvegicus [8]): 120; Activity (Rattus norvegicus [2]): 57.0556%; Activity (Rattus norvegicus [3]): 42.94%; Activity (Rattus norvegicus [4]): 3.87 mm; Activity (Rattus norvegicus [5]): 3.75 mm; Activity (Rattus norvegicus [6]): 3.37 mm; Activity (Rattus norvegicus [7]): 3.22 mm

Q: For `COc1ccc2c(c1)c(CC(=O)O)c(C)n2C(=O)c1ccc(Cl)cc1` [INDOMETHACIN], which UI (Rattus norvegicus [8]) is on record?
A: The UI was 450.

Q: And the Activity (Rattus norvegicus [9])?
A: Its Activity is 100%.

Q: And the Activity (Rattus norvegicus [10])?
A: The Activity was 3.75 mm.

Q: And the Activity (Rattus norvegicus [11])?
A: The Activity was 3.25 mm.

Q: What about the Activity (Rattus norvegicus [12]) of the same compound?
A: The Activity was 2.25 mm.

Q: What about the Activity (Rattus norvegicus [13]) of the same compound?
A: The Activity was 2.12 mm.
